Measured values as given in patent publication US20260297060A1, “COMPOUNDS FOR THE DEGRADATION OF MUTANT BRAF” (C4 THERAPEUTICS, INC., priority 2023, published 2026).
Like-named read-outs stand apart in the source and are kept apart here.

Target: T1, BRAF V600E (Homo sapiens, UniProt P15056+Q96SW2, V600E)
T1 construct: knock-in of the HiBiT tag to the endogenous BRAF V600E locus; host or cells: A375.10 (A375 clonal line, CRISPR HiBiT knock-in at the endogenous BRAF V600E locus)
Assay: BRAF V600E HiBiT Degradation Assay
Format: cell-based
Outline: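 Endogenous HiBiT knock-in on BRAF V600E in A375 cells (clone A375.10); 11-point half-log series, top 10 μM, 2, 6 or 24 h at 37° C. Lytic HiBiT luminescence, background-subtracted, normalized to DMSO; 4-parameter fit gives DC50, Emax (residual protein) and IP (inflection point).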

[1] = A375.10 cells, BRAF V600E, 2 hours, inflection point, read-out: HiBiT-Degradation A375.10 BRAF 2 hours IP
[2] = A375.10 cells, BRAF V600E, 2 hours, read-out: HiBiT-Degradation A375.10 BRAF 2 hours DC50
[3] = A375.10 cells, BRAF V600E, 6 hours, inflection point, read-out: HiBiT-Degradation A375.10 BRAF 6 hours IP
[4] = A375.10 cells, BRAF V600E, 6 hours, read-out: HiBiT-Degradation A375.10 BRAF 6 hours DC50
[5] = A375.10 cells, BRAF V600E, 6 hours, residual protein remaining, read-out: HiBiT-Degradation A375.10 BRAF 6 hours Emax
[6] = A375.10 cells, HiBiT, BRAF V600E, 24 hours, read-out: HiBiT-Degradation A375.10 BRAF 24 hours DC50
[7] = A375.10 cells, HiBiT, BRAF V600E, 24 hours, read-out: HiBiT-Degradation A375.10 BRAF 24 hours Emax
[8] = A375.10 cells, HiBiT, BRAF V600E, 24 hours, read-out: HiBiT-Degradation A375.10 BRAF 24 hours IP
[9] = read-out: HiBiT-Degradation A375.10 BRAF 2 hours Emax, A375.10 cells, BRAF V600E, 2 hours, residual protein remaining
[10] = A375.10 cells, BRAF V600E, 2 hours, residual protein remaining, read-out: HiBiT-Degradation A375.10 BRAF 2 hours Emax

T1 sequence (P15056 whole entry V600E): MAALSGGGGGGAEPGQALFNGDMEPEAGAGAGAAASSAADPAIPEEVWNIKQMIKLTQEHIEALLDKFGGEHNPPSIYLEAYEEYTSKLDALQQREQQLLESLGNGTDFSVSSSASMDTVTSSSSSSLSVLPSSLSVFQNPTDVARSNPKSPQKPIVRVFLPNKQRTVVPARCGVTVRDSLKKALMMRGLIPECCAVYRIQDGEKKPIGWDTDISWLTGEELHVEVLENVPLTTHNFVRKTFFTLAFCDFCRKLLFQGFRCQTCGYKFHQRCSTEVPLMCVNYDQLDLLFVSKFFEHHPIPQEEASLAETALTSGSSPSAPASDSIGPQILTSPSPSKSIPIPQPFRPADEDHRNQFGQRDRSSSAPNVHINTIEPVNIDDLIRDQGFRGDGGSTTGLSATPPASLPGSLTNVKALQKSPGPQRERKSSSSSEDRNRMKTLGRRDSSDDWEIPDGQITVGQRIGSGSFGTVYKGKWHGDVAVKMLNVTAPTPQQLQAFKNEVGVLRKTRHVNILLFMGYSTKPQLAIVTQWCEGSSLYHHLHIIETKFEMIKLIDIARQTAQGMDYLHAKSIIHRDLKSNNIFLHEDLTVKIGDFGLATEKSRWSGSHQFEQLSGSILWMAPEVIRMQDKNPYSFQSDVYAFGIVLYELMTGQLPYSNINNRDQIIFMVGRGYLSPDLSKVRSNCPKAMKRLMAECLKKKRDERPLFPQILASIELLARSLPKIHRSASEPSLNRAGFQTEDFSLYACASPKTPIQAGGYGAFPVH
T1 sequence (Q96SW2 whole entry): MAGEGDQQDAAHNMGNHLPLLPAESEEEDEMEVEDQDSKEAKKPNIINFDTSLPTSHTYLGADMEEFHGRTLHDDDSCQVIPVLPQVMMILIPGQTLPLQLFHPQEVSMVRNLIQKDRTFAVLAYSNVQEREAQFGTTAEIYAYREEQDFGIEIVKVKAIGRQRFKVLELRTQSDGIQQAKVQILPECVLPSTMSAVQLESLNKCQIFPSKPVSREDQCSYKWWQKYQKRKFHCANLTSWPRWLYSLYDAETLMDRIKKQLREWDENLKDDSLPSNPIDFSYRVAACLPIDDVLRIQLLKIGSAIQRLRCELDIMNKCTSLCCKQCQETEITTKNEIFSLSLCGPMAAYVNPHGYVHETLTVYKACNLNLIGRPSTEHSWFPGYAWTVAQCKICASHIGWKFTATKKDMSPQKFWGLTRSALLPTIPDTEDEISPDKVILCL
T1 sequence (Q16531 whole entry partner): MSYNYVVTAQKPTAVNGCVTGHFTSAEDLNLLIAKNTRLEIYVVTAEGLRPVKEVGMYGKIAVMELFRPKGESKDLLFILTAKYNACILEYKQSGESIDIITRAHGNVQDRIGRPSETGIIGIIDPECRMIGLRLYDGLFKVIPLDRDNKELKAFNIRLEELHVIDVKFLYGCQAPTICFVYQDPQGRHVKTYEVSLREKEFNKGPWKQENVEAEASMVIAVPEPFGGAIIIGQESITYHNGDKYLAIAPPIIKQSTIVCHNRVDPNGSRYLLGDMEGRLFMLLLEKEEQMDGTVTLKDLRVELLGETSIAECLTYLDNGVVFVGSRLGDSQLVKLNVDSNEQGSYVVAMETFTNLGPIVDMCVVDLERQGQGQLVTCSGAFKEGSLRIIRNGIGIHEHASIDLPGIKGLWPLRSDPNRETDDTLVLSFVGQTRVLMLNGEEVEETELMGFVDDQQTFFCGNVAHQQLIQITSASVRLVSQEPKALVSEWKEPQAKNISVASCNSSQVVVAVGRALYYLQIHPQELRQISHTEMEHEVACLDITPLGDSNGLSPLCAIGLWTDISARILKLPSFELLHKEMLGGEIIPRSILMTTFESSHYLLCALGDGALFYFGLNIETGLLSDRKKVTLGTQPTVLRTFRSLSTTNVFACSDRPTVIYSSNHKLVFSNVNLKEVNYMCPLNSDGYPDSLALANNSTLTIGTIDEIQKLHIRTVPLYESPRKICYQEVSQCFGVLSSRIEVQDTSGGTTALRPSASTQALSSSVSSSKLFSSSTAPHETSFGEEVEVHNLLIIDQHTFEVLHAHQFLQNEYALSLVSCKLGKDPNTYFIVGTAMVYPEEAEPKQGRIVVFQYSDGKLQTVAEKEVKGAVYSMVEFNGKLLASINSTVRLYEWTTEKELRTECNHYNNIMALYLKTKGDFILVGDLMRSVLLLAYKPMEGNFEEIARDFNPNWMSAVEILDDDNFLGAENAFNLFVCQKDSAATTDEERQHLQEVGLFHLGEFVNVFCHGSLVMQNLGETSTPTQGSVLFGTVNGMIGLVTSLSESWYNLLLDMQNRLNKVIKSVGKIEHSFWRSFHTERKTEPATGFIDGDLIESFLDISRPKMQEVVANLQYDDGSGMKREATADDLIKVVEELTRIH

Compound	DC50 [1]	DC50 [2]	DC50 [3]	DC50 [4]	Emax [5]	DC50 [6]	Emax [7]	DC50 [8]	Emax [9]	Emax [10]	DC50 (read-out: HiBiT-Degradation A375.10 BRAF 2 hours DC50, A375.10 cells, BRAF V600E, 2 hours)	DC50 (read-out: HiBiT-Degradation A375.10 BRAF 2 hours IP, A375.10 cells, BRAF V600E, 2 hours, inflection point)
CCN(C)S(=O)(=O)Nc1ccc(F)c(Oc2ccc3ncc([C@@H]4COC5(CCN(C6CCC(c7cc8c(cc7F)c(N7CCC(=O)NC7=O)nn8C)CC6)CC5)C4)nc3c2)c1C#N (single isomer, unassigned) [Compound 54]	< 1000 nM	< 1000 nM	< 1000 nM	< 1000 nM	< 50%	< 1000 nM	< 50%	< 1000 nM	< 50%	–	–	–
CCN(C)S(=O)(=O)Nc1ccc(F)c(Oc2ccc3ncn(C4CC5(CCN(C6CCC(c7cc8c(cc7F)c(N7CCC(=O)NC7=O)nn8C)CC6)CC5)C4)c(=O)c3c2)c1F (single isomer, unassigned) [Compound 178, 3-[7-[4-[3-(2,4-dioxohexahydropyrimidin-1-yl)-5-fluoro-1-methyl-indazol-6-yl]cyclohexyl]-7-azaspiro[3.5]nonan-2-yl]-6-[3-[[ethyl(methyl)sulfamoyl]amino]-2,6-difluoro-phenoxy]-4-oxo-quinazoline]	< 1000 nM	< 1000 nM	< 1000 nM	< 1000 nM	< 50%	< 1000 nM	< 50%	< 1000 nM	–	< 50%	–	–
Cn1nc(N2CCC(=O)NC2=O)c2cc(F)c(N3CC4(CC(N5CCC6(CC5)CC(n5cnc7ccc(Oc8c(F)ccc(NS(=O)(=O)N9CC[C@@H](F)C9)c8C#N)cc7c5=O)C6)C4)C3)cc21 [Compound 261, (3R)-N-[2-cyano-3-[3-[7-[2-[3-(2,4-dioxohexahydropyrimidin-1-yl)-5-fluoro-1-methyl-indazol-6-yl]-2-azaspiro[3.3]heptan-6-yl]-7-azaspiro[3.5]nonan-2-yl]-4-oxo-quinazolin-6-yl]oxy-4-fluoro-phenyl]-3-fluoro-pyrrolidine-1-sulfonamide]	–	–	–	–	–	–	–	–	< 50%	–	< 1000 nM	< 1000 nM
CCN(C)S(=O)(=O)Nc1ccc(F)c(Oc2ccc3ncn([C@H]4COC5(CCC(N6CC7(CN(c8cc9c(cc8F)c(N8CCC(=O)NC8=O)nn9C)C7)C6)CC5)C4)c(=O)c3c2)c1C#N (stereo partly drawn) [Compound 27, 6-[2-cyano-3-[[ethyl(methyl)sulfamoyl]amino]-6-fluoro-phenoxy]-3-[(3R)-8-[6-[3-(2,4-dioxohexahydropyrimidin-1-yl)-5-fluoro-1-methyl-indazol-6-yl]-2,6-diazaspiro[3.3]heptan-2-yl]-1-oxaspiro[4.5]decan-3-yl]-4-oxo-quinazoline]	< 1000 nM	< 1000 nM	< 1000 nM	< 1000 nM	< 50%	< 1000 nM	< 50%	< 1000 nM	–	< 50%	–	–
CCN(C)S(=O)(=O)Nc1ccc(F)c(Oc2ccc3ncn([C@H]4CCC5(CCN(C6CCC(c7cc8c(cc7F)c(N7CCC(=O)NC7=O)nn8C)CC6)CC5)C4)c(=O)c3c2)c1C#N (single isomer, unassigned) [Compound 33]	< 1000 nM	< 1000 nM	< 1000 nM	< 1000 nM	< 50%	< 1000 nM	< 50%	< 1000 nM	< 50%	–	–	–
CCN(C)S(=O)(=O)Nc1ccc(F)c(Oc2ccc3ncc([C@H]4COC5(CCN(C6CCC(c7ccc(NC8CCC(=O)NC8=O)cc7F)CC6)CC5)C4)nc3c2)c1C#N (single isomer, unassigned) [Compound 58]	< 1000 nM	< 1000 nM	< 1000 nM	< 1000 nM	< 50%	< 1000 nM	< 50%	< 1000 nM	< 50%	–	–	–
